From US20030082135A1, “Pathway of RANTES-mediated chemokine synthesis in astrocytes and methods of use therefor” (priority 2001, published 2003)
Where no end group is shown, it is not given here.

Legend:
[1] = tested on: MEK, ERK1/2, p90RSK, p38, SAPK/JNK phosphorylation in astrocytes; assay: Western blotting of phosphorylated MAP kinase pathway proteins in astrocyte lysates; format: cell-based, mouse
Method: SDS-PAGE and Western blotting. Astrocytes were treated for the indicated time with media or 100 ng/ml RANTES, eotaxin, or other materials as indicated. Cells (3×10^5 in Examples 1-3, or 2×10^4 in later Examples) were resuspended in 100 μl buffer (50 mM HEPES, pH 7.5, 150 mM NaCl, 2 mM EDTA, 2 mM EGTA, 1% Triton X-100, 50 mM Sodium fluoride, 5 mM Sodium pyrophosphate, 50 mM Sodium β-glycerophosphate, 1 mM Sodium Ortho-vanadate, 1 mM DTT, 1 mM PMSF, 10 μg/ml Leupeptin, and 10 μg/ml Aprotinin). Protein concentration of the whole cell extract was determined by BCA protein assay kit (Pierce, Rockford, Ill.). Samples (10 μg) were loaded and separated on a 10% SDS-polyacrylamide gel. After transfer to Hybond ECL nitrocellulose membrane (Amersham Pharmacia Biotech Inc, Piscataway, N.J.) or Zeta-probe blotting membranes (Bio-Rad, Richmond Calif.) blots were blocked overnight with 5% BSA at 4° C., and probed with the antibody indicated. Antibody against unphosphorylated or phosphorylated erk (Cell Signaling, Beverly, Mass.) was used at 1 μg/ml. Appropriate anti-immunoglobulin reagents were used to develop the blots by enhanced chemiluminescence (Amersham Pharmacia Biotech Inc, Piscataway, N.J.).
Little is known about the signaling mechanisms involved in astrocyte respones to chemokines. To examine components of the RANTES signal transduction pathway, phosphorylation of the MAP kinase kinase (MEK) and mitogen activated protein (MAP) kinases was examined. To minimize basal kinase activity, astrocytes were starved of serum for at least 3 h before treatment with chemokine. Whole cell lysates were separated by SDS-PAGE and examined by Western blot. Antibodies that specifically react with phosphorylated MEK or phosphorylated extracellular signal-related kinase (ERK) were used to detect the active kinases.

[2] = tested on: primary neonatal mouse astrocyte cultures; assay: RNase protection assay (RPA) for chemokine/cytokine transcripts in astrocyte cultures; format: cell-based; details: for expression of transcripts for MIP-1α: PKA inhibitors alone, 3 h; for expression of TNF-α, RANTES, KC, MIP-1α, MIP-2, and MCP-1 transcripts: BALB/cJ neonatal astrocytes, chemokine for 6 h
Method: Astrocyte isolation and culture. […] RNA isolation and RNase protection assay (RPA). […] RNase protection assays (RPA) for chemokine message were conducted with multi-probe templates according to the manufacture's protocol (RiboQuant assay kit, BD-PharMingen, San Diego, Calif.). Gels were scanned and radioactive bands quantitated using a phosphoimager (Molecular Dynamics, Sunnyvale, Calif.). Levels of uniformly expressed housekeeping genes large ribosomal subunit protein 32-3A (L32) or glyceraldehyde-3-phosphate dehydrogenase (GAPDH), were used for normalization. The value of each chemokine receptor band divided by the value of the indicated housekeeping gene band in the same sample yielded the relative intensity. Normalized receptor expression represents the ratio of the relative intensity following treatment with chemokine versus the relative intensity of medium alone. Treatment with pharmacological inhibitors. Astrocytes were washed and resuspended in serum-and insulin-free complete medium and starved overnight. Cells were treated at 37° C. for 1 h with 100 ng/ml Pertussis toxin (PTx) before addition of RANTES or IL-1. […] The cells were harvested after a 3 h incubation with RANTES; RNA was prepared and assayed by RPA.

[3] = tested on: murine KC promoter; assay: KC promoter luciferase reporter in transfected astrocytes; format: cell-based, mouse; details: U0126 indicated amounts or 5 μM SB203580 plus 100 ng/ml RANTES, 24 h
Description: Plasmids, transient transfection, and luciferase activity assay. The KC reporter plasmid was constructed by using a luciferase reporter gene pGL-3 basic vector (Promega, Madison, Wis.) driven by mouse KC promoter (−2878/+43). Wild-type p90RSK expression (WT pKH3) and dominant negative p90RSK expression (ΔΔ RSK pKH3) plasmids were obtained from Dr. John Blenis, Harvard Medical School. Astrocytes were transiently transfected with Lipofectamine 2000 reagent (Life Technologies, Gaithersburg, Md.) according to the manufacturer's protocol. After 24 h, the cells were stimulated with RANTES in absence or presence of the indicated inhibitor, and luciferase activity was determined after an additional 24 h, by the procedure according to the manufacturer (Promega, Madison, Wis.). Relative luciferase activity was normalized for cell lysate protein concentration as determined by BCA protein assay kit (Pierce, Rockford, Ill.). The Relative Fold Induction is the relative intensity of the experimental sample divided by the relative intensity of the medium control.
To establish whether RANTES up-regulation of chemokine production is mediated by activation of promoter elements, primary astrocyte cultures were transiently transfected with a murine KC promoter-luciferase construct, and reporter activity was monitored after RANTES treatment.

[4] = tested on: PKA; assay: PKA activity assay on lysates of treated astrocytes; format: cell-based, mouse; details: 1 μM forskolin, 500 μM db-cAMP or 500 μM 8-bromo-cAMP, 1 h
Method: PKA activity assay. PKA activity was determined using a commercially available kit (Calbiochem, San Diego, Calif.) according to manufacturer's recommendations. Primary mouse astrocytes were grown in 6-well plates and then stimulated as described and lysed in 100 μl buffer (same buffer used for Western blotting) for 30 min. Five μl of the lysates were incubated with 20 μl PKA reaction mixture at 30° C. for 30 min. The reaction was terminated by adding 10 μl stop solution and ^32P radioactivity was counted.

[5] = tested on: intracellular cAMP in astrocytes; assay: Intracellular cAMP in astrocytes (EIA); format: cell-based, mouse; details: 1 μM forskolin, 1 h
Method: FIG. 8 is a set of bar graphs showing that RANTES reduced intracellular cAMP accumulation in astrocytes. Panel A. Astrocytes were treated with the indicated doses of RANTES or TCA4 for 5 min. Intracellular cAMP was detected as described in Materials and Methods. Values represent the mean±S.E.M of triplicate experiments. Panel B. Kinetics of intracellular cAMP levels. Astrocytes were treated with 100 ng/ml RANTES for indicated times. Panel C. RANTES inhibited forskolin-induced intracellular cAMP accumulation. Astrocytes were pretreated with 1 μM forskolin for 1 h then stimulated with the indicated amount of RANTES for 5 min. Intracellular cAMP was determined by EIA. Values are presented as relative cAMP level and represent the mean±S.E.M. of triplicate experiments.
To further elucidate the RANTES-mediated signaling pathway in astrocytes, intracellular cAMP levels were evaluated following chemokine stimulation. Primary mouse astrocytes were incubated with the indicated dose of RANTES or the negative control chemokine, TCA4 for 5 min and monitored for cAMP levels. RANTES (100 ng/ml) decreased intracellular cAMP levels by 68% in a dose dependent fashion (FIG. 8A).

[6] = tested on: CXCR4, CX3CR1, CCR1, CCR5 transcripts in astrocytes; assay: RPA for chemokine receptor transcripts in astrocytes; format: cell-based, mouse
Method: RNA isolation and RNase protection assay (RPA). RNA was prepared as in Luo, Y., et al. 1999. J Immunol 163:3985. RNase protection assays (RPA) for chemokine message were conducted with multi-probe templates according to the manufacture's protocol (RiboQuant assay kit, BD-PharMingen, San Diego, Calif.). Gels were scanned and radioactive bands quantitated using a phosphoimager (Molecular Dynamics, Sunnyvale, Calif.). Levels of uniformly expressed housekeeping genes large ribosomal subunit protein 32-3A (L32) or glyceraldehyde-3-phosphate dehydrogenase (GAPDH), were used for normalization. The value of each chemokine receptor band divided by the value of the indicated housekeeping gene band in the same sample yielded the relative intensity. Normalized receptor expression represents the ratio of the relative intensity following treatment with chemokine versus the relative intensity of medium alone.
Treatment with the RANTES-related chemokines RANTES or eotaxin, or with TNF-α also found to down-regulate expression of CX3CR1 transcripts. In addition, CXCR4 mRNA levels were decreased, while the levels of CCR1 transcripts were elevated. In contrast, little or no regulation of CCR5 was noted. The pooled results of 3-4 experiments indicate eotaxin caused an average 60% decrease in CXCR4 (P less than 0.01) and a 70% decrease in CX3CR1 mRNA (P less than 0.02) (FIG. 8.B). The effects of RANTES stimulation were similar with an average 70 and 90% reduction in CXCR4 and CX3CR1 transcripts, respectively (P less than 0.01).

CN(C)CCCn1cc(C2=C(c3c[nH]c4ccccc34)C(=O)NC2=O)c2ccccc21 [GF109203, reference compound]
MEK phosphorylation ([1]; protein kinase C inhibitor control, 20 min): failed to stimulate

O=c1c(-c2ccc(O)cc2)coc2cc(O)cc(O)c12 [Genistein, genistein, reference compound]
effect on RANTES-induced chemokine message ([2]; U0126 50 μM, genistein 100 μM, wortmannin 1 μM, added 30 min prior to chemokine, 3 h RANTES): block chemokine message

O=S(=O)(NCCNC/C=C/c1ccc(Br)cc1)c1cccc2cnccc12 [H-89, reference compound]
MEK, erk1/2 and RSK phosphorylation ([1]; indicated doses, 20 min, no RANTES): induced | expression of transcripts for MIP-1α [2]: induced

Nc1ncnc2c1nc(Br)n2C1OC2COP(O)(=S)OC2C1O (stereo not shown) [Rp-8-bromo-cAMP, reference compound]
expression of transcripts for MIP-1α [2]: induced

C[S+]([O-])c1ccc(-c2nc(-c3ccncc3)c(-c3ccc(F)cc3)[nH]2)cc1 (stereo not shown) [SB203580, reference compound]
effect on erk1/2 and RSK phosphorylation induced by H-89 ([1]; 10-50 μM U0126 or 5 μM SB203580, 10 μM H-89 for 20 min): fail to block | effect on RANTES-mediated transcription of chemokine RNA [2]: failed to modulate | effect on RANTES-induced KC reporter activity [3]: did not inhibit

CCCC(=O)Nc1ncnc2c1ncn2[C@@H]1O[C@@H]2COP(=O)(O)O[C@H]2[C@H]1OC(=O)CCC [db-cAMP, dibutyryl cAMP, reference compound]
effect of cAMP analogue alone on transcription ([2]; 500 μM, no RANTES): Neither cAMP analogue alone had any effect | effects on KC and MIP-2 transcription ([2]; 500 μM, peaking at 2 h): weak and transient | effect on astrocyte PKA activity [4]: activated

C=C[C@@]1(C)CC(=O)[C@]2(O)[C@@]3(C)[C@@H](O)CCC(C)(C)[C@@H]3[C@H](O)[C@H](OC(C)=O)[C@@]2(C)O1 [forskolin, reference compound]
increase of intracellular cAMP levels [5]: about 4 fold

MCP-1: recombinant mouse CC-chemokine, purchased from BD-PharMingen
modulation of expression of any of the receptor transcripts examined [6]: did not significantly modulate | expression of TNF-α, RANTES, KC, MIP-1α, MIP-2, and MCP-1 transcripts [2]: no effect

PKI: protein kinase A inhibitor 14-22 amide (SGRTGRRNA-NH2; UniProt P61925 14-22, looked up, fragment) [reference compound]
expression of transcripts for MIP-1α [2]: induced

SDF-1α
expression of TNF-α, RANTES, KC, MIP-1α, MIP-2, and MCP-1 transcripts [2]: no effect

TNF-α
CX3CR1 and CXCR4 expression [6]: reduced | change in CCR5 transcripts [6]: little or no change | increase of CCR1 transcripts [6]: 55%

B1: MIP-1α: recombinant mouse CC-chemokine, purchased from R&D System (protein, UniProt P10855 24-92, looked up)
C-C motif chemokine 3: APYGADTPTACCFSYSRKIPRQFIVDYFETSSLCSQPGVIFLTKRNRQICADSKETWVQEYITDLELNA
expression of TNF-α, RANTES, KC, MIP-1α, MIP-2, and MCP-1 transcripts [2]: up-regulated

B2: MIP-1β: recombinant mouse CC-chemokine, purchased from R&D System (protein, UniProt P14097 24-92, looked up)
C-C motif chemokine 4: APMGSDPPTSCCFSYTSRQLHRSFVMDYYETSSLCSKPAVVFLTKRGRQICANPSEPWVTEYMSDLELN
expression of TNF-α, RANTES, KC, MIP-1α, MIP-2, and MCP-1 transcripts [2]: up-regulated

B3: IL-1: recombinant murine IL-1β, purchased from Invitrogen (protein, UniProt P10749 118-269, looked up)
Interleukin-1 beta: VPIRQLHYRLRDEQQKSLVLSDPYELKALHLNGQNINQQVIFSMSFVQGEPSNDKIPVALGLKGKNLYLSCVMKDGTPTLQLESVDPKQYPKKKMEKRFVFNKIEVKSKVEFESAEFPNWYISTSQAEHKPVFLGNNSGQDIIDFTMESVSS
activation of the three MAP kinases (ERK1/2, SAPK/JNK, p38) ([1]; 20 ng/ml IL-1β, 20 min): activated
